Three molecules from patent publication US20040152772A1, “1-butyric acid derivatives and the use thereof” (priority 2001, published 2004) can be followed below.

In assay [1] the test system is Novikoff hepatoma cells. Kind of assay: Proliferation of Novikoff hepatoma cells, cell count per flask after four days of cultivation. It is filed as cell-based. As to conditions: FIGS. 1 and 2. The source says: The Novikoff hepatoma cells that were used derived from the Tumor Bank of the German Cancer Research Center, Heidelberg (Cancer Research 1951, 17, 1010). 100,000 cells were spread out per 25 cm^2 of cultivation surface on each occasion. After having been dissolved in a solvent, such as e.g. water, diluted ethanol, dimethyl sulfoxide or a similar material that is suitable for use in cell cultures, the substance in accordance with the invention according to Example 1, or L-cycloserine, or dehydrothreonine was added to the culture medium in increasing concentrations, e.g. L-cycloserine (Compound 16) or dehydrothreonine (Compound 2) in the range of concentrations from 80 μM-5000 μM; and carbomethoxypropionyl cyanide (Compound 13) in the range of concentrations from 100 μM-300 μM. The cell count per flask was enumerated after four days of cultivation.

For assay [2], the system named is Novikoff cells. As to the kind of experiment: Effect on the metabolism (flow of glycolysis) of Novikoff cells. Type of assay: cell-based. As to conditions: FIG. 3.

Structures are written as SMILES.

As to `COC(=O)CCC(=O)C#N` [Compound 9, methyl ester of 4-cyano, 4-oxo-butanoic acid], in assay [1] (concentrations 100 μM-300 μM), the “inhibition of proliferation (cell count per flask) in comparison to the control sample” value is reported as “dose-dependent inhibition of proliferation”. The flow of glycolysis entry in assay [2] is given as “massively inhibited the flow of glycolysis”. Consider `N[C@H]1CONC1=O` [Compound 16, L-cycloserine], for which the “inhibition of proliferation (cell count per flask) in comparison to the control sample” value in assay [1] (concentrations 80 μM-5000 μM) is listed as “dose-dependent inhibition of proliferation”.

`C/C(O)=C(/N)C(=O)O` [Compound 2, dehydrothreonine]: the “inhibition of proliferation (cell count per flask) in comparison to the control sample” value in assay [1] (concentrations 80 μM-5000 μM) is on record as “dose-dependent inhibition of proliferation”.
